In patent US4504655A, “Substances potentiating the activity of antibiotics and their production” (Takeda Chemical Industries, Ltd., priority 1981, dated 1985):

Key:
Format in all cases: cell-based
[1] = system: Escherichia coli IFO 12734; assay: Inhibition of growth of Escherichia coli in liquid culture (absorbance at 600 nm); settings: 37° C., 2 hours
[2] = system: Escherichia coli IFO 12734; assay: as above; settings: for Absorbance at 600 nm: 37° C., 2 hours
Method: Table 5: Inhibition of growth of Escherichia coli IFO 12734 in the copresence of F2 (obtained in Example 1) and cephalexin or cefmenoxime.
(§1) To 8 ml of YAB medium (1.75% Difco antibiotic medium No. 3, 0.5% Difco yeast extract) containing 12% (w/v) of sucrose, there were added 1 ml of water, 50 μg/ml cephalexin solution or 10 μg/ml cefmenoxime solution, and the medium was inoculated with 1 ml of a preculture in YAB medium at an early logarithmic growth phase and incubated with shaking at 37° C. for 2 hours. Thereafter, the absorbance of the culture broth was measured at 600 nm using a Shimadzu-Bausch & Lomb Spectronic 20 colorimeter.

[3] = system: Escherichia coli IFO 12734; assay: Antibiotic-potentiating activity, paper disc growth inhibition zone, Escherichia coli IFO 12734
Method: The potency of the compound of the formula (II) can be determined, for instance, by the cup method or paper disc method using bouillon agar containing 0.05 μg/ml of cefmenoxime with Escherichia coli IFO 12734 as the test organism. […]
(§2) *The test was performed using a bouillon agar medium containing the
antibiotic as specified and a paper disc, 8 mm in diameter.
**A paper disc, 8 mm in diameter, was impregnated with 25 μl of the […]

[4] = system: Proteus mirabilis ATCC 21100; assay: Antibiotic-potentiating activity, paper disc growth inhibition zone, Proteus mirabilis ATCC 21100
Method: as §2
antibiotic as specified and a paper disc, 8 mm in diameter. […]
*The test was performed under the same conditions as noted for Table 1
except for the test organism and the concentration of each coexisting

Escherichia coli = assay: Observation of the culture broths under a phase contrast microscope; settings: in the presence of cephalexin or cefmenoxime
Method: as §1

[5] = F2 of Example 1, 1 μg/ml in test solution, no addition
[6] = F2 of Example 1, 5 μg/ml in test solution, no addition
[7] = F2 of Example 1, 25 μg/ml in test solution, no addition
[8] = F2 of Example 1, 125 μg/ml in test solution, no addition
[9] = F2 of Example 1, 1000 μg/ml in test solution, no addition
[10] = F2 of Example 3, 1 μg/ml in test solution, no addition
[11] = F2 of Example 3, 5 μg/ml in test solution, no addition
[12] = F2 of Example 3, 25 μg/ml in test solution, no addition
[13] = F2 of Example 3, 125 μg/ml in test solution, no addition
[14] = F2 of Example 3, 1000 μg/ml in test solution, no addition

## CC(=O)NC1C(OC2CC(C(=O)NCCS(=O)(=O)O)NC2CO)OC(CO)C(OS(=O)(=O)O)C1O (stereo not drawn) [F2]
[1]; final F2 (Example 1) 10 μg/ml, 1 μg/ml cefmenoxime
  Absorbance at 600 nm: 0.25
[1]; final F2 (Example 1) 10 μg/ml, 5 μg/ml cephalexin
  Absorbance at 600 nm: 1.00
[1]; final F2 (Example 1) 100 μg/ml, 1 μg/ml cefmenoxime
  Absorbance at 600 nm: 0.30
[1]; final F2 (Example 1) 100 μg/ml, 5 μg/ml cephalexin
  Absorbance at 600 nm: 0.95
[1]; final F2 (Example 1) 100 μg/ml, no addition
  Absorbance at 600 nm: 2.70
[1]; final F2 (Example 3) 1 μg/ml, 1 μg/ml cefmenoxime
  Absorbance at 600 nm: 0.55
[1]; final F2 (Example 3) 1 μg/ml, 5 μg/ml cephalexin
  Absorbance at 600 nm: 1.75
[1]; final F2 (Example 3) 1 μg/ml, no addition
  Absorbance at 600 nm: 2.45
[1]; final F2 (Example 3) 10 μg/ml, 1 μg/ml cefmenoxime
  Absorbance at 600 nm: 0.25
[1]; final F2 (Example 3) 10 μg/ml, 5 μg/ml cephalexin
  Absorbance at 600 nm: 1.90
[1]; final F2 (Example 3) 10 μg/ml, no addition
  Absorbance at 600 nm: 2.50
[1]; final F2 (Example 3) 100 μg/ml, 1 μg/ml cefmenoxime
  Absorbance at 600 nm: 0.25
[1]; final F2 (Example 3) 100 μg/ml, 5 μg/ml cephalexin
  Absorbance at 600 nm: 0.75
[1]; final F2 (Example 3) 100 μg/ml, no addition
  Absorbance at 600 nm: 2.55
[2]; final F2 (Example 1) 1 μg/ml, 1 μg/ml cefmenoxime
  Absorbance at 600 nm: 0.60
[2]; final F2 (Example 1) 1 μg/ml, 5 μg/ml cephalexin
  Absorbance at 600 nm: 1.80
[2]; final F2 (Example 1) 1 μg/ml, no addition
  Absorbance at 600 nm: 2.65
[2]; final F2 (Example 1) 10 μg/ml, no addition
  Absorbance at 600 nm: 2.65
[2]; in the presence of cephalexin or cefmenoxime, decrease in absorbance
  Inhibition of growth of Escherichia coli: inhibits the growth of Escherichia coli
[3]; F2 of Example 1, 1 μg/ml in test solution, 0.03 μg/ml mecillinam
  Diameter of growth inhibition zone: < 8 mm
[3]; F2 of Example 1, 1 μg/ml in test solution, 0.05 μg/ml cefmenoxime
  Diameter of growth inhibition zone: 10 mm
[3]; [5]
  Diameter of growth inhibition zone: < 8 mm
[3]; F2 of Example 1, 5 μg/ml in test solution, 0.03 μg/ml mecillinam
  Diameter of growth inhibition zone: 10 mm
[3]; F2 of Example 1, 5 μg/ml in test solution, 0.05 μg/ml cefmenoxime
  Diameter of growth inhibition zone: 15 mm
[3]; [6]
  Diameter of growth inhibition zone: < 8 mm
[3]; F2 of Example 1, 25 μg/ml in test solution, 0.03 μg/ml mecillinam
  Diameter of growth inhibition zone: 18 mm
[3]; F2 of Example 1, 25 μg/ml in test solution, 0.05 μg/ml cefmenoxime
  Diameter of growth inhibition zone: 24 mm
[3]; [7]
  Diameter of growth inhibition zone: < 8 mm
[3]; F2 of Example 1, 125 μg/ml in test solution, 0.03 μg/ml mecillinam
  Diameter of growth inhibition zone: 24 mm
[3]; F2 of Example 1, 125 μg/ml in test solution, 0.05 μg/ml cefmenoxime
  Diameter of growth inhibition zone: 32 mm
[3]; [8]
  Diameter of growth inhibition zone: < 8 mm
[3]; F2 of Example 1, 1000 μg/ml in test solution, 0.03 μg/ml mecillinam
  Diameter of growth inhibition zone: 30 mm
[3]; F2 of Example 1, 1000 μg/ml in test solution, 0.05 μg/ml cefmenoxime
  Diameter of growth inhibition zone: 40 mm
[3]; [9]
  Diameter of growth inhibition zone: < 8 mm
[3]; F2 of Example 3, 1 μg/ml in test solution, 0.03 μg/ml mecillinam
  Diameter of growth inhibition zone: < 8 mm
[3]; F2 of Example 3, 1 μg/ml in test solution, 0.05 μg/ml cefmenoxime
  Diameter of growth inhibition zone: 9 mm
[3]; [10]
  Diameter of growth inhibition zone: < 8 mm
[3]; F2 of Example 3, 5 μg/ml in test solution, 0.03 μg/ml mecillinam
  Diameter of growth inhibition zone: 9 mm
[3]; F2 of Example 3, 5 μg/ml in test solution, 0.05 μg/ml cefmenoxime
  Diameter of growth inhibition zone: 14 mm
[3]; [11]
  Diameter of growth inhibition zone: < 8 mm
[3]; F2 of Example 3, 25 μg/ml in test solution, 0.03 μg/ml mecillinam
  Diameter of growth inhibition zone: 19 mm
[3]; F2 of Example 3, 25 μg/ml in test solution, 0.05 μg/ml cefmenoxime
  Diameter of growth inhibition zone: 23 mm
[3]; [12]
  Diameter of growth inhibition zone: < 8 mm
[3]; F2 of Example 3, 125 μg/ml in test solution, 0.03 μg/ml mecillinam
  Diameter of growth inhibition zone: 23 mm
[3]; F2 of Example 3, 125 μg/ml in test solution, 0.05 μg/ml cefmenoxime
  Diameter of growth inhibition zone: 31 mm
[3]; [13]
  Diameter of growth inhibition zone: < 8 mm
[3]; F2 of Example 3, 1000 μg/ml in test solution, 0.03 μg/ml mecillinam
  Diameter of growth inhibition zone: 29 mm
[3]; F2 of Example 3, 1000 μg/ml in test solution, 0.05 μg/ml cefmenoxime
  Diameter of growth inhibition zone: 39 mm
[3]; [14]
  Diameter of growth inhibition zone: < 8 mm
[4]; F2 of Example 1, 1 μg/ml in test solution, 0.01 μg/ml cefmenoxime
  Diameter of growth inhibition zone: 9 mm
[4]; F2 of Example 1, 1 μg/ml in test solution, 0.05 μg/ml mecillinam
  Diameter of growth inhibition zone: 9 mm
[4]; [5]
  Diameter of growth inhibition zone: < 8 mm
[4]; F2 of Example 1, 5 μg/ml in test solution, 0.01 μg/ml cefmenoxime
  Diameter of growth inhibition zone: 13 mm
[4]; F2 of Example 1, 5 μg/ml in test solution, 0.05 μg/ml mecillinam
  Diameter of growth inhibition zone: 11 mm
[4]; [6]
  Diameter of growth inhibition zone: < 8 mm
[4]; F2 of Example 1, 25 μg/ml in test solution, 0.01 μg/ml cefmenoxime
  Diameter of growth inhibition zone: 23 mm
[4]; F2 of Example 1, 25 μg/ml in test solution, 0.05 μg/ml mecillinam
  Diameter of growth inhibition zone: 19 mm
[4]; [7]
  Diameter of growth inhibition zone: < 8 mm
[4]; F2 of Example 1, 125 μg/ml in test solution, 0.01 μg/ml cefmenoxime
  Diameter of growth inhibition zone: 30 mm
[4]; F2 of Example 1, 125 μg/ml in test solution, 0.05 μg/ml mecillinam
  Diameter of growth inhibition zone: 26 mm
[4]; [8]
  Diameter of growth inhibition zone: < 8 mm
[4]; F2 of Example 1, 1000 μg/ml in test solution, 0.01 μg/ml cefmenoxime
  Diameter of growth inhibition zone: 38 mm
[4]; F2 of Example 1, 1000 μg/ml in test solution, 0.05 μg/ml mecillinam
  Diameter of growth inhibition zone: 32 mm
[4]; [9]
  Diameter of growth inhibition zone: < 8 mm
[4]; F2 of Example 3, 1 μg/ml in test solution, 0.01 μg/ml cefmenoxime
  Diameter of growth inhibition zone: 9 mm
[4]; F2 of Example 3, 1 μg/ml in test solution, 0.05 μg/ml mecillinam
  Diameter of growth inhibition zone: 9 mm
[4]; [10]
  Diameter of growth inhibition zone: < 8 mm
[4]; F2 of Example 3, 5 μg/ml in test solution, 0.01 μg/ml cefmenoxime
  Diameter of growth inhibition zone: 12 mm
[4]; F2 of Example 3, 5 μg/ml in test solution, 0.05 μg/ml mecillinam
  Diameter of growth inhibition zone: 12 mm
[4]; [11]
  Diameter of growth inhibition zone: < 8 mm
[4]; F2 of Example 3, 25 μg/ml in test solution, 0.01 μg/ml cefmenoxime
  Diameter of growth inhibition zone: 22 mm
[4]; F2 of Example 3, 25 μg/ml in test solution, 0.05 μg/ml mecillinam
  Diameter of growth inhibition zone: 19 mm
[4]; [12]
  Diameter of growth inhibition zone: < 8 mm
[4]; F2 of Example 3, 125 μg/ml in test solution, 0.01 μg/ml cefmenoxime
  Diameter of growth inhibition zone: 29 mm
[4]; F2 of Example 3, 125 μg/ml in test solution, 0.05 μg/ml mecillinam
  Diameter of growth inhibition zone: 25 mm
[4]; [13]
  Diameter of growth inhibition zone: < 8 mm
[4]; F2 of Example 3, 1000 μg/ml in test solution, 0.01 μg/ml cefmenoxime
  Diameter of growth inhibition zone: 38 mm
[4]; F2 of Example 3, 1000 μg/ml in test solution, 0.05 μg/ml mecillinam
  Diameter of growth inhibition zone: 32 mm
[4]; [14]
  Diameter of growth inhibition zone: < 8 mm
Escherichia coli
  Swelling and bacteriolysis under phase contrast microscope: partial swelling occurred and bacteriolysis proceeded
Escherichia coli; in dependence on the addition level
  Elongation of cells under phase contrast microscope: elongation was inhibited
